Data from US4520026A, “Indolizine derivatives and use as cardiovascular agents” (S. A. Labaz N.V., priority 1982, dated 1985).

How the values were obtained:
[1] = Acute toxicity by intravenous route to rats; assay type: in vivo; conditions: rat, in vivo, oxalate acid form except those marked (hydrochloride)
Procedure: (§1) Acute toxicity tests were carried out on rats and mice. The following results were registered in comparison with butoprozine. The compounds of the invention were used in oxalate acid form except those marked (x) which were tested in hydrochloride form.

[2] = Acute toxicity by intravenous route to mice; conditions: mouse, in vivo, oxalate acid form except those marked (hydrochloride)
Procedure: as §1

[3] = Acute toxicity by intragastric route to mice; assay type: in vivo; conditions: mouse, in vivo, po, oxalate acid form except those marked (hydrochloride)
Procedure: as §1

mice = assay: Acute toxicity by intragastric route to mice; assay type: in vivo; conditions: hydrochloride form (marked)
Procedure: as §1

[4] = system: epinephrine-accelerated heart rate (anti-β effect); assay: Antiadrenergic effect: anti-β effect (reduction of epinephrine-accelerated heart rate); assay type: in vivo; conditions: dog; for inhibition in vivo at 5 mg/kg: Canis lupus familiaris, iv, dose 5 mg/kg i.v.
Method in brief: (§2)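 Pentobarbital-anaesthetized, atropinized dogs given an epinephrine dose (5–10 μg/kg) raising arterial pressure about 100 mm Hg, then test compound i.v. Reduction of the pressor response (anti-α) and of the ~70-beat tachycardia (anti-β) scored: + <50%, ++ ≥50%, +++ subtotal.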

ventricular fibrillation = assay: Anti-arrhythmic properties, LAWSON test (chloroform-provoked arrhythmia), intragastric; assay type: in vivo; conditions: Mus musculus, po, mice, read-out: AD50 (dose protecting 50% of the animals against ventricular fibrillation)
Procedure: The arrhythmia was provoked by making the animals inhale chloroform to total asphyxia and by later observing the ventricular rhythm. The dose of compound protecting 50% of the animals against ventricular fibrillation i.e. the AD50 was then recorded.

[5] = system: epinephrine-increased blood-pressure (anti-α effect); assay: Antiadrenergic effect: anti-α effect (reduction of epinephrine-increased blood-pressure); assay type: in vivo; conditions: dog
Method in brief: as §2

[6] = Blood level after oral dose in the dog; assay type: in vivo; conditions: same oral dose
dog = assay: Cardiac tolerance and general toxicity in long-term toxicity tests, oral, dog; conditions: in vivo
[7] = system: blood-flow to the myocardium; assay: Effect on blood-flow to the myocardium, anaesthetized dogs, intravenous; assay type: in vivo, dog; conditions: dose 10 mg/kg i.v., anaesthetized dog
Procedure: It was undertaken on anaesthetized dogs which received the substance under study by intravenous route. The intensity of the maximum effect on blood-flow to the myocardium was expressed in percentage of the corresponding value before injection. The time required for the maximum effect to decrease by 50% represented the duration of the effect. This time was measured in minutes.

[8] = system: consumption of oxygen by the myocardium; assay: Consumption of oxygen by the myocardium; conditions: in vivo
Source text: Furthermore, the indolizine derivatives present a β-antiadrenergic effect which is much more powerful than that of the derivatives of the aforesaid U.S. patent. At the minimum dose required to produce bradycardia, a reduction in arterial pressure, α-antiadrenergic and coronarodilatory effects to a significant degree, the β-antiadrenergic effect is, in fact, only slight in the case of the derivatives of the U.S. patent in question whereas it is much stronger with the indolizine derivatives of the invention. Moreover, the compounds of the invention reduce the consumption of oxygen by the myocardium calculated by multiplying the difference between the arterial and venous blood in oxygen by the coronary blood-flow. Thus, the compounds of the invention cause a considerable reduction in the arterio-venous difference which induces a decrease in the consumption of oxygen in spite of the increase of the coronary blood-flow.

Row | SMILES | LD50 [1] | LD50 [2] | LD50 [3] | LD0 (mice) | inhibition in vivo at 5 mg/kg [4] | Anti-β effect ([4]; dose 10 mg/kg i.v.) | ED50 (ventricular fibrillation) | Anti-α effect ([5]; dose 5 mg/kg i.v.) | Anti-α effect ([5]; dose 10 mg/kg i.v.) | Blood level compared with butoprozine [6] | Dose provoking ventricular arrhythmia (as low as) (dog) | Lethal dose (dog) | change in vivo at 10 mg/kg ([7]; Canis lupus familiaris, iv, read-out: Max. increase (blood-flow to the myocardium)) | Time required to decrease to 50% (duration of effect) [7] | Consumption of oxygen by the myocardium [8]
1 | CCCCN(CCCC)CCCOc1ccc(C(=O)c2c(C)c(Br)c3ccccn23)cc1Br.Cl [(*)Br/Br/H/CH3/n-C4H9/3, 1-Bromo-2-methyl-3-[4-(3-di-n-butylaminopropyl)-oxy-3-bromo-benzoyl]-indolizine hydrochloride] | 70 mg/kg | 50 mg/kg | > 5000 mg/kg | > 5000 mg/kg |  |  |  |  |  |  |  |  |  |  | 
2 | CCCCN(CCCC)CCCOc1ccc(C(=O)c2c(C)c(Br)c3ccccn23)cc1Br [Br/Br/H/CH3/n-C4H9/3, 1-Bromo-2-methyl-3-[4-(3-di-n-butylaminopropyl)-oxy-3-bromo-benzoyl]-indolizine] |  |  |  |  | > 50% | +++ | 180 mg/kg | +++ | +++ | three times higher |  |  |  |  | 
3 | CCCCN(CCCC)CCCOc1ccc(C(=O)c2c(CC)cc3ccccn23)cc1 [Butoprozine, 2-ethyl-3-[4-(3-di-n-butylaminopropyl)-oxy-benzoyl]-indolizine, reference compound] | 22 mg/kg | 25 mg/kg | 1600 mg/kg |  | < 50% |  | 270 mg/kg | +++ |  |  | 50 mg/kg/day | 50 to 100 mg/kg/day | 120% | 4 min | 
4 | OCCN(CCO)c1nc(N2CCCCC2)c2nc(N(CCO)CCO)nc(N3CCCCC3)c2n1 [dipyridamole] |  |  |  |  |  |  |  |  |  |  |  |  |  |  | does not decrease the consumption of oxygen by the myocardium
